Measured values published in the supplement of paper PMC10307832.

What was measured:
Test in all cases: relative viability (nuclei count vs DMSO), 5 days (fraction); higher = more cells survive
Midostaurin + Linsitinib = compound: CO[C@@H]1[C@H](N(C)C(=O)c2ccccc2)C[C@H]2O[C@]1(C)n1c3ccccc3c3c4c(c5c6ccccc6n2c5c31)C(=O)NC4 [Midostaurin] + C[C@]1(O)C[C@@H](c2nc(-c3ccc4ccc(-c5ccccc5)nc4c3)c3c(N)nccn32)C1 [Linsitinib] (partner 1 µM)
Summary of the method: (§1)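 Each reported value is a median over duplicate plates. It expresses relative viability: treated-well nuclei count divided by vehicle-well nuclei count. Lung cancer cell lines in 1536-well plates were dosed by pin tool a day after seeding, alone with one drug or with a fixed anchor-drug dose plus five library-drug doses (not always all listed) in √10 steps, and nuclei were counted after 5 days.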

[1] = compound: COc1cc(-c2nn([C@H]3CC[C@H](N4CCN(C(C)=O)CC4)CC3)c3ncnc(N)c23)ccc1NC(=O)c1cc2ccccc2n1C + CC(=O)c1c(C)c2cnc(Nc3ccc(N4CCNCC4)cn3)nc2n(C2CCCC2)c1=O [Palbociclib] (partner 0.5 µM)
Summary of the method: as §1

[2] = compound: COc1cc(-c2nn([C@H]3CC[C@H](N4CCN(C(C)=O)CC4)CC3)c3ncnc(N)c23)ccc1NC(=O)c1cc2ccccc2n1C + Nc1ncn([C@H]2C[C@H](O)[C@@H](CO)O2)c(=O)n1 [Decitabine] (partner 2 µM)
Summary of the method: as §1

Midostaurin + Crizotinib = compound: CO[C@@H]1[C@H](N(C)C(=O)c2ccccc2)C[C@H]2O[C@]1(C)n1c3ccccc3c3c4c(c5c6ccccc6n2c5c31)C(=O)NC4 [Midostaurin] + C[C@@H](Oc1cc(-c2cnn(C3CCNCC3)c2)cnc1N)c1c(Cl)ccc(F)c1Cl [Crizotinib] (partner 1 µM)
Summary of the method: as §1

[3] = compound: COc1cc(-c2nn([C@H]3CC[C@H](N4CCN(C(C)=O)CC4)CC3)c3ncnc(N)c23)ccc1NC(=O)c1cc2ccccc2n1C + CC1(C)CCC(c2ccc(Cl)cc2)=C(CN2CCN(c3ccc(C(=O)NS(=O)(=O)c4ccc(N[C@H](CCN5CCOCC5)CSc5ccccc5)c(S(=O)(=O)C(F)(F)F)c4)cc3)CC2)C1 [Navitoclax] (partner 0.5 µM)
Summary of the method: as §1

Cell Line | relative viability (Midostaurin + Linsitinib; first compound 0.01 µM) | relative viability (Midostaurin + Linsitinib; first compound 0.03162 µM) | relative viability (Midostaurin + Linsitinib; first compound 0.1 µM) | relative viability (Midostaurin + Linsitinib; first compound 0.3162 µM) | relative viability ([1]; first compound 0.0128 µM) | relative viability ([1]; first compound 0.04048 µM) | relative viability ([1]; first compound 0.128 µM) | relative viability ([1]; first compound 1.28 µM) | relative viability ([2]; first compound 0.0128 µM) | relative viability ([2]; first compound 0.04048 µM) | relative viability ([2]; first compound 0.128 µM) | relative viability ([2]; first compound 1.28 µM) | relative viability (Midostaurin + Crizotinib; first compound 0.01 µM) | relative viability (Midostaurin + Crizotinib; first compound 0.03162 µM) | relative viability (Midostaurin + Crizotinib; first compound 0.1 µM) | relative viability (Midostaurin + Crizotinib; first compound 0.3162 µM) | relative viability ([3]; first compound 0.0128 µM) | relative viability ([3]; first compound 0.04048 µM) | relative viability ([3]; first compound 0.128 µM) | relative viability ([3]; first compound 1.28 µM)
HCC-44 | 0.756 | 0.659 | 0.579 | 0.609 | 1.04 | 0.975 | 0.972 | 1.29 | 1.13 | 0.979 | 0.846 | 1.04 | 0.747 | 0.787 | 0.697 | 0.627 | 1.13 | 0.913 | 1.02 | 0.934
HCC-78 | 0.53 | 0.483 | 0.556 | 0.278 | 0.479 | 0.433 | 0.465 | 0.381 | 0.674 | 0.689 | 0.701 | 0.539 | 0.363 | 0.288 | 0.38 | 0.329 | 0.947 | 0.901 | 0.87 | 0.621
HCC-366 | 0.624 | 0.754 | 0.457 | 0.381 | 0.485 | 0.431 | 0.403 | 0.256 | 0.379 | 0.344 | 0.351 | 0.306 | 0.504 | 0.505 | 0.445 | 0.522 | 1.09 | 1 | 1.05 | 0.821
IA-LM | 0.557 | 0.378 | 0.711 | 0.673 | – | – | – | – | – | – | – | – | 0.751 | 0.712 | 0.606 | 0.448 | 0.87 | 1.08 | 0.87 | 0.968
LCLC-103H | 1.12 | 1.16 | 1.16 | 1.14 | 0.509 | 0.474 | 0.433 | 0.503 | 0.832 | 0.725 | 0.691 | 0.759 | 1.05 | 1.01 | 0.982 | 1.02 | – | – | – | –
NCI-H358 | 0.818 | 0.607 | 0.813 | 0.599 | 0.145 | 0.137 | 0.126 | 0.115 | 0.224 | 0.206 | 0.246 | 0.167 | 0.528 | 0.596 | 0.563 | 0.292 | – | – | – | –
NCI-H522 | – | – | – | – | 1.08 | 0.864 | 0.822 | 0.778 | 0.665 | 0.7 | 0.738 | 0.717 | – | – | – | – | – | – | – | –
NCI-H596 | 1.09 | 1.17 | 1.08 | 1.15 | – | – | – | – | 1.33 | 1.18 | 0.89 | 0.716 | 0.957 | 1.12 | 1.11 | 1.1 | 1.06 | 1.02 | 0.911 | 0.525
NCI-H650 | 0.715 | 0.862 | 0.76 | 0.508 | 0.35 | 0.385 | 0.3 | 0.339 | 0.319 | 0.35 | 0.304 | 0.306 | 0.574 | 0.748 | 0.773 | 0.444 | – | – | – | –
